Measurements from PubChem BioAssay AID1745844 (Carcinogenic Potency Database (CPDB), 2022).

Tested on: rodent lifetime carcinogenesis bioassay, tumor incidence TD50
Assay: chronic cancer bioassays in animals – CPDB, compiled studies (AID 1745844)

## C1COCCO1
mouse, strain B6C3F1, females, in drinking water, site: any site (literature study), lesion: several types, types named in the paper, dosed 90 weeks, study length 90 weeks
  TD50: 847 mg/kg/day
mouse, strain B6C3F1, females, in drinking water, site: liver, lesion: hepatocellular adenoma + hepatocellular carcinoma + neoplastic nodule, dosed 90 weeks, study length 90 weeks
  TD50: 594 mg/kg/day
mouse, strain B6C3F1, females, in drinking water, site: liver, lesion: hepatocellular adenoma + hepatocellular carcinoma, dosed 90 weeks, study length 90 weeks
  TD50: 594 mg/kg/day
mouse, strain B6C3F1, females, in drinking water, site: liver, lesion: hepatocellular carcinoma, dosed 90 weeks, study length 90 weeks
  TD50: 938 mg/kg/day
mouse, strain B6C3F1, females, in drinking water, site: lung, lesion: alveolar/bronchiolar adenoma + alveolar/bronchiolar carcinoma, dosed 90 weeks, study length 90 weeks
  TD50: 71900 mg/kg/day
mouse, strain B6C3F1, males, in drinking water, site: all sites, lesion: hemangioma + hemangiosarcoma, dosed 90 weeks, study length 91 weeks
  TD50: 3150 mg/kg/day
mouse, strain B6C3F1, males, in drinking water, site: all sites, lesion: lymphoma, dosed 90 weeks, study length 91 weeks
  TD50: 3930 mg/kg/day
mouse, strain B6C3F1, males, in drinking water, site: any site (literature study), lesion: several types, types named in the paper, dosed 90 weeks, study length 91 weeks
  TD50: 1880 mg/kg/day
mouse, strain B6C3F1, males, in drinking water, site: liver, lesion: hepatocellular adenoma + hepatocellular carcinoma + neoplastic nodule, dosed 90 weeks, study length 91 weeks
  TD50: 1460 mg/kg/day
mouse, strain B6C3F1, males, in drinking water, site: liver, lesion: hepatocellular adenoma + hepatocellular carcinoma, dosed 90 weeks, study length 91 weeks
  TD50: 1460 mg/kg/day
mouse, strain B6C3F1, males, in drinking water, site: liver, lesion: hepatocellular carcinoma, dosed 90 weeks, study length 91 weeks
  TD50: 1420 mg/kg/day
mouse, strain BDF1, females, in drinking water, site: liver, lesion: hepatocellular adenoma, dosed 104 weeks, study length 105 weeks
  TD50: 83.1 mg/kg/day
mouse, strain BDF1, females, in drinking water, site: liver, lesion: hepatocellular carcinoma, dosed 104 weeks, study length 105 weeks
  TD50: 404 mg/kg/day
mouse, strain BDF1, females, in drinking water, site: liver, lesion: several types, types named in the paper, dosed 104 weeks, study length 105 weeks
  TD50: 65.5 mg/kg/day
mouse, strain BDF1, females, in drinking water, site: nasal cavity, lesion: adenocarcinoma, dosed 104 weeks, study length 105 weeks
  TD50: 72100 mg/kg/day
mouse, strain BDF1, males, in drinking water, site: liver, lesion: hepatocellular adenoma, dosed 104 weeks, study length 105 weeks
  TD50: 519 mg/kg/day
mouse, strain BDF1, males, in drinking water, site: liver, lesion: hepatocellular carcinoma, dosed 104 weeks, study length 105 weeks
  TD50: 1040 mg/kg/day
mouse, strain BDF1, males, in drinking water, site: liver, lesion: several types, types named in the paper, dosed 104 weeks, study length 105 weeks
  TD50: 982 mg/kg/day
mouse, strain BDF1, males, in drinking water, site: nasal cavity, lesion: esthesioneuroepithelioma, dosed 104 weeks, study length 105 weeks
  TD50: 60100 mg/kg/day
rat, strain Charles River CD (Sprague-Dawley), males, in drinking water, site: nasal cavity, lesion: squamous-cell carcinoma, dosed 56 weeks, study length 69 weeks
  TD50: 2950 mg/kg/day
rat, strain F344/DuCrj, females, in drinking water, site: liver, lesion: hepatocellular adenoma, dosed 104 weeks, study length 105 weeks
  TD50: 182 mg/kg/day
rat, strain F344/DuCrj, females, in drinking water, site: liver, lesion: hepatocellular carcinoma, dosed 104 weeks, study length 105 weeks
  TD50: 1120 mg/kg/day
rat, strain F344/DuCrj, females, in drinking water, site: liver, lesion: several types, types named in the paper, dosed 104 weeks, study length 105 weeks
  TD50: 167 mg/kg/day
rat, strain F344/DuCrj, females, in drinking water, site: mammary gland, lesion: adenoma, dosed 104 weeks, study length 105 weeks
  TD50: 772 mg/kg/day
rat, strain F344/DuCrj, females, in drinking water, site: nasal cavity, lesion: esthesioneuroepithelioma, dosed 104 weeks, study length 105 weeks
  TD50: 12200 mg/kg/day
rat, strain F344/DuCrj, females, in drinking water, site: nasal cavity, lesion: malignant tumor, dosed 104 weeks, study length 105 weeks
  TD50: 1430 mg/kg/day
rat, strain F344/DuCrj, females, in drinking water, site: nasal cavity, lesion: squamous-cell carcinoma, dosed 104 weeks, study length 105 weeks
  TD50: 1650 mg/kg/day
rat, strain F344/DuCrj, males, in drinking water, site: liver, lesion: hepatocellular adenoma, dosed 104 weeks, study length 105 weeks
  TD50: 279 mg/kg/day
rat, strain F344/DuCrj, males, in drinking water, site: liver, lesion: hepatocellular carcinoma, dosed 104 weeks, study length 105 weeks
  TD50: 676 mg/kg/day
rat, strain F344/DuCrj, males, in drinking water, site: liver, lesion: several types, types named in the paper, dosed 104 weeks, study length 105 weeks
  TD50: 189 mg/kg/day
rat, strain F344/DuCrj, males, in drinking water, site: mammary gland, lesion: fibroadenoma, dosed 104 weeks, study length 105 weeks
  TD50: 3070 mg/kg/day
rat, strain F344/DuCrj, males, in drinking water, site: nasal cavity, lesion: esthesioneuroepithelioma, dosed 104 weeks, study length 105 weeks
  TD50: 10600 mg/kg/day
rat, strain F344/DuCrj, males, in drinking water, site: nasal cavity, lesion: malignant tumor, dosed 104 weeks, study length 105 weeks
  TD50: 1440 mg/kg/day
rat, strain F344/DuCrj, males, in drinking water, site: nasal cavity, lesion: rhabdomyosarcoma, dosed 104 weeks, study length 105 weeks
  TD50: 10600 mg/kg/day
rat, strain F344/DuCrj, males, in drinking water, site: nasal cavity, lesion: sarcoma, NOS, dosed 104 weeks, study length 105 weeks
  TD50: 5270 mg/kg/day
rat, strain F344/DuCrj, males, in drinking water, site: nasal cavity, lesion: squamous-cell carcinoma, dosed 104 weeks, study length 105 weeks
  TD50: 3490 mg/kg/day
rat, strain F344/DuCrj, males, in drinking water, site: peritoneum, lesion: mesothelioma, dosed 104 weeks, study length 105 weeks
  TD50: 246 mg/kg/day
rat, strain F344/DuCrj, males, in drinking water, site: subcutaneous tissue, lesion: fibroma, dosed 104 weeks, study length 105 weeks
  TD50: 922 mg/kg/day
rat, strain Osborne-Mendel, females, in drinking water, site: any site (literature study), lesion: several types, types named in the paper, dosed 110 weeks, study length 111 weeks
  TD50: 40.5 mg/kg/day
rat, strain Osborne-Mendel, females, in drinking water, site: liver + nasal turbinate, lesion: hepatocellular adenoma + squamous-cell carcinoma, dosed 110 weeks, study length 111 weeks
  TD50: 126 mg/kg/day
rat, strain Osborne-Mendel, females, in drinking water, site: liver, lesion: hepatocellular adenoma + hepatocellular carcinoma + neoplastic nodule, dosed 110 weeks, study length 111 weeks
  TD50: 124 mg/kg/day
rat, strain Osborne-Mendel, females, in drinking water, site: liver, lesion: hepatocellular adenoma, dosed 110 weeks, study length 111 weeks
  TD50: 160 mg/kg/day
rat, strain Osborne-Mendel, females, in drinking water, site: nasal turbinate, lesion: squamous-cell carcinoma, dosed 110 weeks, study length 111 weeks
  TD50: 476 mg/kg/day
rat, strain Osborne-Mendel, males, in drinking water, site: any site (literature study), lesion: several types, types named in the paper, dosed 110 weeks, study length 110 weeks
  TD50: 114 mg/kg/day
rat, strain Osborne-Mendel, males, in drinking water, site: liver, lesion: hepatocellular adenoma + hepatocellular carcinoma + neoplastic nodule, dosed 110 weeks, study length 110 weeks
  TD50: 796 mg/kg/day
rat, strain Osborne-Mendel, males, in drinking water, site: nasal turbinate, lesion: squamous-cell carcinoma, dosed 110 weeks, study length 110 weeks
  TD50: 168 mg/kg/day
rat, strain Sherman, both sexes, in drinking water, site: liver, lesion: hepatocellular carcinoma, dosed 104 weeks, study length 104 weeks
  TD50: 2500 mg/kg/day
rat, strain Sherman, both sexes, in drinking water, site: liver, lesion: several types, types named in the paper, dosed 104 weeks, study length 104 weeks
  TD50: 2120 mg/kg/day
rat, strain Sherman, both sexes, in drinking water, site: nasal turbinate, lesion: squamous-cell carcinoma, dosed 104 weeks, study length 104 weeks
  TD50: 15900 mg/kg/day
rat, strain Wistar, both sexes, in drinking water, site: any site (literature study), lesion: several types, types named in the paper, dosed 63 weeks, study length 64 weeks
  TD50: 690 mg/kg/day
rat, strain Wistar, both sexes, in drinking water, site: liver, lesion: hepatoma, dosed 63 weeks, study length 64 weeks
  TD50: 515 mg/kg/day

## Nc1ccc(Cl)cc1N
mouse, strain B6C3F1, females, in feed, site: any site (literature study), lesion: several types, types named in the paper, dosed 78 weeks, study length 95 weeks
  TD50: 4090 mg/kg/day
mouse, strain B6C3F1, females, in feed, site: liver, lesion: hepatocellular adenoma + hepatocellular carcinoma + neoplastic nodule, dosed 78 weeks, study length 95 weeks
  TD50: 2240 mg/kg/day
mouse, strain B6C3F1, females, in feed, site: liver, lesion: hepatocellular adenoma + hepatocellular carcinoma, dosed 78 weeks, study length 95 weeks
  TD50: 2240 mg/kg/day
mouse, strain B6C3F1, females, in feed, site: liver, lesion: hepatocellular carcinoma, dosed 78 weeks, study length 95 weeks
  TD50: 5060 mg/kg/day
mouse, strain B6C3F1, males, in feed, site: any site (literature study), lesion: several types, types named in the paper, dosed 78 weeks, study length 95 weeks
  TD50: 905 mg/kg/day
mouse, strain B6C3F1, males, in feed, site: liver, lesion: hepatocellular adenoma + hepatocellular carcinoma + neoplastic nodule, dosed 78 weeks, study length 95 weeks
  TD50: 957 mg/kg/day
mouse, strain B6C3F1, males, in feed, site: liver, lesion: hepatocellular adenoma + hepatocellular carcinoma, dosed 78 weeks, study length 95 weeks
  TD50: 957 mg/kg/day
mouse, strain B6C3F1, males, in feed, site: liver, lesion: hepatocellular carcinoma, dosed 78 weeks, study length 95 weeks
  TD50: 1370 mg/kg/day
mouse, strain B6C3F1, males, in feed, site: lung, lesion: alveolar/bronchiolar adenoma + alveolar/bronchiolar carcinoma, dosed 78 weeks, study length 95 weeks
  TD50: 21300 mg/kg/day
rat, strain Fischer 344, females, in feed, site: any site (literature study), lesion: several types, types named in the paper, dosed 78 weeks, study length 105 weeks
  TD50: 351 mg/kg/day
rat, strain Fischer 344, females, in feed, site: liver, lesion: hepatocellular adenoma + hepatocellular carcinoma + neoplastic nodule, dosed 78 weeks, study length 105 weeks
  TD50: 6500 mg/kg/day
rat, strain Fischer 344, females, in feed, site: stomach + urinary bladder, lesion: squamous-cell papilloma + papillomatosis + papillary carcinoma + papilloma, NOS + transitional-cell carcinoma + transitional-cell, dosed 78 weeks, study length 105 weeks
  TD50: 212 mg/kg/day
rat, strain Fischer 344, females, in feed, site: stomach, lesion: squamous-cell papilloma, dosed 78 weeks, study length 105 weeks
  TD50: 5270 mg/kg/day
rat, strain Fischer 344, females, in feed, site: thyroid gland, lesion: follicular-cell adenoma + follicular-cell carcinoma, dosed 78 weeks, study length 105 weeks
  TD50: 2160 mg/kg/day
rat, strain Fischer 344, females, in feed, site: urinary bladder, lesion: papillary carcinoma + transitional-cell carcinoma, dosed 78 weeks, study length 105 weeks
  TD50: 429 mg/kg/day
rat, strain Fischer 344, females, in feed, site: urinary bladder, lesion: papillomatosis + papillary carcinoma + papilloma, NOS + transitional-cell carcinoma + transitional-cell papilloma, dosed 78 weeks, study length 105 weeks
  TD50: 212 mg/kg/day
rat, strain Fischer 344, males, in feed, site: any site (literature study), lesion: several types, types named in the paper, dosed 78 weeks, study length 105 weeks
  TD50: 362 mg/kg/day
rat, strain Fischer 344, males, in feed, site: liver, lesion: hepatocellular adenoma + hepatocellular carcinoma + neoplastic nodule, dosed 78 weeks, study length 105 weeks
  TD50: 1240 mg/kg/day
rat, strain Fischer 344, males, in feed, site: stomach + urinary bladder, lesion: squamous-cell carcinoma + squamous-cell papilloma + papilloma, NOS + transitional-cell carcinoma + transitional-cell papilloma, dosed 78 weeks, study length 105 weeks
  TD50: 197 mg/kg/day
rat, strain Fischer 344, males, in feed, site: stomach, lesion: squamous-cell carcinoma + squamous-cell papilloma, dosed 78 weeks, study length 105 weeks
  TD50: 2500 mg/kg/day
rat, strain Fischer 344, males, in feed, site: thyroid gland, lesion: follicular-cell adenoma + follicular-cell carcinoma, dosed 78 weeks, study length 105 weeks
  TD50: 3380 mg/kg/day
rat, strain Fischer 344, males, in feed, site: urinary bladder, lesion: papilloma, NOS + transitional-cell carcinoma + transitional-cell papilloma, dosed 78 weeks, study length 105 weeks
  TD50: 216 mg/kg/day
rat, strain Fischer 344, males, in feed, site: urinary bladder, lesion: squamous-cell carcinoma, dosed 78 weeks, study length 105 weeks
  TD50: 3780 mg/kg/day
rat, strain Fischer 344, males, in feed, site: urinary bladder, lesion: transitional-cell carcinoma, dosed 78 weeks, study length 105 weeks
  TD50: 363 mg/kg/day
